This passage reports GI50 and TGI results from PubChem BioAssay (NCI).

Values joined by “and” are separate entries in the source; they are usually repeats but may differ in a detail not shown here. Equal entries are not always repeated.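 Cultured in 96-well plates, cells were exposed to test compound for 48 hours across five concentrations. Here, GI50 denotes the concentration required for 50% inhibition of growth. TGI is the concentration that stops growth completely.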

Among the test systems are MOLT-4 leukemia; NCI-H460 lung; TK-10 renal; 786-0 renal; PC-3 prostate; U251 CNS; CAKI-1 renal; OVCAR-3 ovarian; KM12 colon; RXF 393 renal.
What all share (test): NCI tumour cell line growth inhibition, 48 h

Regarding `C/C(=C\c1ccn(-c2ccc(N)cc2C(F)(F)F)n1)[C@@H]1C[C@@H]2O[C@]2(C)CCC[C@H](C)[C@H](O)[C@@H](C)C(=O)C(C)(C)[C@@H](O)CC(=O)O1`, the GI50 with MOLT-4 leukemia was 0.533 µM; in the test with NCI-H460 lung it was 0.302 µM; in the test on TK-10 renal, 0.612 µM; with 786-0 renal, 0.569 µM; in the test with PC-3 prostate, 0.406 µM; in the test with U251 CNS, 0.386 µM. Further, the GI50 in the test with CAKI-1 renal is 7.81 µM; in the test on OVCAR-3 ovarian, 0.344 µM; with KM12 colon, 0.254 µM; with RXF 393 renal it was 0.395 µM. The TGI in the test on MOLT-4 leukemia, in the test with NCI-H460 lung, in the test on TK-10 renal, in the test with 786-0 renal, in the test with PC-3 prostate and in the test with U251 CNS was greater than 11.1 µM in each case. Moreover, the TGI was greater than 11.1 µM in the test on CAKI-1 renal, 2.66 µM in the test on OVCAR-3 ovarian, greater than 11.1 µM in the test with KM12 colon and 4.21 µM in the test with RXF 393 renal.

In the case of `CN1CCN(Cc2ccc(NC(=O)c3[nH]ncc3Nc3ccnc4ccsc34)cc2)CC1`, the GI50 with MOLT-4 leukemia was 2.09 µM; in the test with NCI-H460 lung, 3.15 µM; in the test on TK-10 renal, 4.97 µM; in the test with 786-0 renal, 3.84 µM; in the test on PC-3 prostate, 3.25 µM; in the test on U251 CNS it was 2.4 µM. Also, the GI50 with CAKI-1 renal is 6.04 µM; in the test with OVCAR-3 ovarian, 2.34 µM; in the test on KM12 colon it was 2.35 µM; in the test on RXF 393 renal it was 2.01 µM. The TGI with MOLT-4 leukemia was found to be 7.93 µM; in the test on NCI-H460 lung, 12 µM; in the test with TK-10 renal, 23.1 µM; in the test on 786-0 renal, 13.6 µM; in the test with PC-3 prostate, 20.2 µM; in the test with U251 CNS it was 13.6 µM. The TGI in the test with CAKI-1 renal was determined as 27.6 µM; in the test on OVCAR-3 ovarian, 11.5 µM; in the test on KM12 colon it was 11.2 µM; with RXF 393 renal it was 4.76 µM.

On to `Cc1cc(-c2cc(C)c(O)c(C(C)(C)C)c2)cc(C(C)(C)C)c1O`, for which the TGI was 19.4 µM and 21.5 µM in the test with MOLT-4 leukemia; 19.4 µM and 17.8 µM in the test with NCI-H460 lung; 24.5 µM and 23.2 µM in the test with TK-10 renal; 22.6 µM and 25.7 µM in the test on 786-0 renal; 19.2 µM and 26.5 µM in the test on PC-3 prostate; 22.4 µM and 26.4 µM with U251 CNS. In addition, the TGI is 22.7 µM and 27.7 µM in the test on CAKI-1 renal; 28.4 µM and 27 µM in the test with OVCAR-3 ovarian; 20.8 µM and 21.3 µM in the test on KM12 colon; 25.5 µM and 26.1 µM in the test with RXF 393 renal. Moreover, the GI50 in the test with PC-3 prostate was 6.09 µM and 13.7 µM.

For the compound `O=C(c1cccs1)c1c(C(F)(F)F)n([O-])c2cc(C(F)(F)F)ccc2[n+]1=O`, the GI50 in the test with MOLT-4 leukemia was 0.0757 µM; in the test on NCI-H460 lung, 0.198 µM; with TK-10 renal, 0.678 µM; with 786-0 renal, 0.171 µM; with PC-3 prostate, 0.136 µM; in the test on U251 CNS, 0.153 µM. The GI50 in the test with CAKI-1 renal is 0.22 µM; with OVCAR-3 ovarian it was 0.333 µM; with KM12 colon, 0.183 µM; in the test on RXF 393 renal, 0.184 µM. In addition, the TGI was found to be 0.231 µM in the test with MOLT-4 leukemia; 0.512 µM in the test with NCI-H460 lung; 1.85 µM in the test with TK-10 renal; 0.319 µM with 786-0 renal; 0.281 µM in the test with PC-3 prostate; 0.288 µM in the test with U251 CNS. Moreover, the TGI in the test on CAKI-1 renal is 0.628 µM; with OVCAR-3 ovarian, 0.704 µM; in the test with KM12 colon, 0.38 µM; in the test on RXF 393 renal it was 0.351 µM.

Regarding `COc1cc(-c2ccc(-[n+]3nc(-c4ccc([N+](=O)[O-])cc4)nn3-c3ccc([N+](=O)[O-])cc3)c(OC)c2)ccc1-[n+]1nc(-c2ccc([N+](=O)[O-])cc2)nn1-c1ccc([N+](=O)[O-])cc1`, the GI50 with MOLT-4 leukemia was 2.98 µM; in the test on NCI-H460 lung, 3.02 µM; in the test on TK-10 renal it was 4.61 µM; with 786-0 renal, 3.45 µM; in the test on PC-3 prostate, 12.8 µM; with U251 CNS it was 10.8 µM. For the same compound, the GI50 is 15.1 µM in the test with CAKI-1 renal, 9.77 µM with OVCAR-3 ovarian, 4.04 µM with KM12 colon and 2.25 µM in the test with RXF 393 renal. The TGI is greater than 82 µM with MOLT-4 leukemia; 11.1 µM with NCI-H460 lung; 17.5 µM with TK-10 renal; 23.2 µM in the test with 786-0 renal; 36.5 µM with PC-3 prostate; 38.7 µM in the test on U251 CNS. In addition, the TGI in the test on CAKI-1 renal was found to be 48.5 µM; in the test on OVCAR-3 ovarian, 38.2 µM; with KM12 colon it was 21.4 µM; in the test with RXF 393 renal it was 6.08 µM.

Take `O=C(Nc1cccc(-c2nc3ccccc3[nH]2)c1)c1cccc(NC(=O)c2ccco2)c1`: the GI50 in the test on MOLT-4 leukemia was 2.96 µM; in the test on NCI-H460 lung it was 1.67 µM; with TK-10 renal, 2.88 µM; with 786-0 renal, 1.65 µM; with PC-3 prostate, 2.25 µM; with U251 CNS, 1.73 µM. Besides, the GI50 was 2.53 µM in the test on CAKI-1 renal, 1.97 µM in the test with OVCAR-3 ovarian, 2.27 µM with KM12 colon and 1.51 µM in the test with RXF 393 renal. Also, the TGI with MOLT-4 leukemia was determined as 12 µM; with NCI-H460 lung it was 3.03 µM; in the test on TK-10 renal, 6.66 µM; in the test with 786-0 renal, 3.05 µM; in the test on PC-3 prostate, 5.48 µM; in the test on U251 CNS it was 3.23 µM. Further, the TGI in the test with CAKI-1 renal amounted to 7.21 µM; with OVCAR-3 ovarian, 3.39 µM; with KM12 colon it was 5.61 µM; with RXF 393 renal, 3.55 µM.

`CNC(=O)c1ccc(Nc2nc(OC3CCCC3)c3c(-c4ccc5nc(C)oc5c4)c[nH]c3n2)c(OC)c1`: the GI50 in the test with MOLT-4 leukemia was 1.63 µM; in the test with NCI-H460 lung, 0.119 µM; in the test on TK-10 renal, greater than 68.7 µM; in the test with 786-0 renal it was greater than 43.4 µM; in the test with PC-3 prostate, 3.57 µM; in the test on U251 CNS it was 15.3 µM. Besides, the GI50 was 0.448 µM with CAKI-1 renal, 0.427 µM in the test on OVCAR-3 ovarian, 9.47 µM in the test on KM12 colon and greater than 100 µM in the test with RXF 393 renal. Besides, the TGI in the test with MOLT-4 leukemia, in the test on NCI-H460 lung, in the test with TK-10 renal, with 786-0 renal, in the test on PC-3 prostate and in the test on U251 CNS was greater than 100 µM throughout. The TGI was greater than 100 µM in the test with CAKI-1 renal, greater than 44.6 µM in the test on OVCAR-3 ovarian, greater than 100 µM in the test on KM12 colon and greater than 100 µM with RXF 393 renal.
